# Data from ChEMBL document CHEMBL4602617, “Discovery and optimization of heteroaryl piperazines as potent and selective PI3Kδ inhibitors” (Bioorg Med Chem Lett, 2020).
# Key:
# Cytochrome P450 2C9 = Cytochrome P450 2C9 (Homo sapiens, UniProt P11712); assay: Inhibition of CYP2C9 (unknown origin); assay type: ADME
# Cytochrome P450 2D6 = Cytochrome P450 2D6 (Homo sapiens, UniProt P10635); assay: Inhibition of CYP2D6 (unknown origin)
# [1] = target: AMP-activated protein kinase (AMPK) alpha-1/beta-1/gamma-1 (Homo sapiens, UniProt P54619+Q13131+Q9Y478); assay: Inhibition of recombinant full length GST/His-tagged human AMPK alpha1/beta1/gamma1 expressed in insect cells using Ser/Thr-23 peptide as substrate incubated for 60 mins in presence of ATP by Z'-LYTE assay
# [2] = target: Mitogen-activated protein kinase kinase kinase kinase 4 (Homo sapiens, UniProt O95819); assay: Inhibition of recombinant GST-tagged human MAP4K4 catalytic domain expressed in baculovirus expression system using Ser/Thr 07 peptide as substrate after 1 hr in presence of ATP by Z'-LYTE assay
# [3] = target: Neuropeptide Y receptor type 1 (Homo sapiens) (UniProt P25929); assay: Displacement of [[125I]peptide YY from full length human SK-N-MC cell-derived Y1 neuropeptide receptor at 10 uM measured after 60 mins by radiometric scintillation analysis relative to control; assay type: cell-based
# [4] = target: Melanin-concentrating hormone receptor 1 (Homo sapiens) (UniProt Q99705); assay: Displacement of [125I]Tyr-S36057 from full length human recombinant SLC1 receptor expressed in CHO-K1 cells at 10 uM measured after 120 mins by radiometric scintillation analysis relative to control; assay type: cell-based
# [5] = target: Glutamate NMDA receptor (Rattus norvegicus) (UniProt P35439+Q00959+Q00960+Q00961+Q62645+Q8VHN2+Q9R1M7); assay: Displacement of [3H]Ifenprodil from in glutamate NMDA receptor polyamine binding site in Wistar rat cerebral cortex at 10 uM incubated for 120 mins by radiometric scintillation analysis relative to control
# [6] = target: Alpha-2A adrenergic receptor (Homo sapiens) (UniProt P08913); assay: Displacement of [3H]rauwolscine from full-length recombinant human alpha2A receptor expressed in CHOK1 cells at 10 uM measured after 60 mins by scintillation counting method relative to control; assay type: cell-based; conditions: CHO-K1
# [7] = target: Phosphodiesterase 3 (Homo sapiens) (UniProt Q14432+Q13370); assay: Inhibition of human platelet PDE3 at 10 uM using cAMP as substrate after 20 mins in presence of [3H]cAMP by radiometric scintillation assay relative to control
# [8] = target: Epidermal growth factor receptor (Homo sapiens, UniProt P00533, T790M); assay: Inhibition of human recombinant GST-tagged EGFR T790M mutant cytoplasmic domain expressed in baculovirus expression system using tyrosine 4 peptide as substrate after 60 mins in presence of ATP FRET based Z'-LYTE assay
# Ephrin type-A receptor 2 = Ephrin type-A receptor 2 (Homo sapiens, UniProt P29317); assay: Inhibition of recombinant human GST-tagged EPHA2 cytoplasmic domain expressed in baculovirus expression system using tyrosine-01 peptide as substrate incubated for 60 mins in presence of ATP by Z'-Lyte assay
# [9] = target: Receptor tyrosine-protein kinase erbB-2 (Homo sapiens, UniProt P04626); assay: Inhibition of human recombinant ERBB2 (537 to 636 residues) expressed in Escherichia coli using Tyr 06 as substrate after 1 hr in presence of ATP by Z'-LYTE assay
# [10] = target: Tyrosine-protein kinase Fer (Homo sapiens, UniProt P16591); assay: Inhibition of recombinant GST-tagged human FER (541 to 822 residues) cytoplasmic domain expressed in baculovirus expression system using Tyr 05 peptide as substrate after 1 hr in presence of ATP by Z'-LYTE assay
# [11] = target: Leucine-rich repeat serine/threonine-protein kinase 2 (Homo sapiens, UniProt Q5S007, G2019S); assay: Inhibition of recombinant human GST-tagged LRRK2 G2019S mutant catalytic domain (970 to 2527 residues) expressed in baculovirus expression system using LRRKtide as substrate measured after 1 hr in presence of ATP by ADAPTA assay
# [12] = target: Leukocyte tyrosine kinase receptor (Homo sapiens, UniProt P29376); assay: Inhibition of recombinant human GST-tagged LTK (450 to 864 residues) cytoplasmic domain expressed in baculovirus expression system using tyrosine-6 peptide as substrate incubated for 60 mins in presence of ATP by Z'-LYTE assay
# [13] = target: Mitogen-activated protein kinase kinase kinase 8 (Homo sapiens, UniProt P41279); assay: Inhibition of recombinant human GST-tagged MAP3K8 catalytic domain expressed in baculovirus expression system using serine/threonine-3 peptide as substrate incubated for 60 mins in presence of ATP by Z'-LYTE assay
# [14] = target: Serine/threonine-protein kinase MARK1 (Homo sapiens, UniProt Q9P0L2); assay: Inhibition of recombinant full length human GST-tagged MARK1 expressed in baculovirus expression system using serine/threonine-21 peptide as substrate incubated for 60 mins in presence of ATP by Z'-LYTE assay
# [15] = target: Serine/threonine-protein kinase 26 (Homo sapiens, UniProt Q9P289); assay: Inhibition of recombinant full length human GST-tagged MST4 expressed in baculovirus expression system using serine/threonine-7 peptide as substrate incubated for 60 mins in presence of ATP by Z'-LYTE assay
# [16] = target: Serine/threonine-protein kinase Nek1 (Homo sapiens, UniProt Q96PY6); assay: Inhibition of recombinant human GST-tagged NEK1 catalytic domain (1 to 505 residues) expressed in baculovirus expression system using serine/threonine-7 peptide as substrate incubated for 60 mins in presence of ATP by Z'-LYTE assay
# [17] = target: BDNF/NT-3 growth factors receptor (Homo sapiens, UniProt Q16620); assay: Inhibition of recombinant human His-tagged NTRK2 cytoplasmic domain (526 to 838 residues) expressed in baculovirus expression system using tyrosine-01 peptide as substrate incubated for 60 mins in presence of ATP by Z'-LYTE assay
# [18] = target: PAS domain-containing serine/threonine-protein kinase (Homo sapiens, UniProt Q96RG2); assay: Inhibition of recombinant human GST-tagged PASK catalytic domain expressed in baculovirus expression system using serine/threonine-7 peptide as substrate incubated for 60 mins in presence of ATP by Z'-LYTE assay
# [19] = target: Phosphatidylinositol 4-phosphate 3-kinase C2 domain-containing subunit alpha (Homo sapiens, UniProt O00443); assay: Inhibition of recombinant full length human N-terminal GST-tagged PIK3C2alpha catalytic domain expressed in baculovirus expression system using PI lipid as substrate incubated for 60 mins in presence of ATP by Adapta assay
# [20] = target: Protein kinase C eta type (Homo sapiens, UniProt P24723); assay: Inhibition of recombinant full length human His-tagged PRKCH expressed in baculovirus expression system using serine/threonine-7 peptide as substrate incubated for 60 mins in presence of ATP by Z'-LYTE assay
# SRSF protein kinase 2 = SRSF protein kinase 2 (Homo sapiens, UniProt P78362); assay: Inhibition of recombinant full length human GST-tagged SRPK2 expressed in baculovirus expression system using serine/threonine-07 peptide as substrate incubated for 60 mins in presence of ATP by Z'-LYTE assay
# Phosphatidylinositol 4-phosphate 3-kinase C2 domain-containing subunit alpha, sequence (O00443 whole entry, looked up, the tested form may be a part): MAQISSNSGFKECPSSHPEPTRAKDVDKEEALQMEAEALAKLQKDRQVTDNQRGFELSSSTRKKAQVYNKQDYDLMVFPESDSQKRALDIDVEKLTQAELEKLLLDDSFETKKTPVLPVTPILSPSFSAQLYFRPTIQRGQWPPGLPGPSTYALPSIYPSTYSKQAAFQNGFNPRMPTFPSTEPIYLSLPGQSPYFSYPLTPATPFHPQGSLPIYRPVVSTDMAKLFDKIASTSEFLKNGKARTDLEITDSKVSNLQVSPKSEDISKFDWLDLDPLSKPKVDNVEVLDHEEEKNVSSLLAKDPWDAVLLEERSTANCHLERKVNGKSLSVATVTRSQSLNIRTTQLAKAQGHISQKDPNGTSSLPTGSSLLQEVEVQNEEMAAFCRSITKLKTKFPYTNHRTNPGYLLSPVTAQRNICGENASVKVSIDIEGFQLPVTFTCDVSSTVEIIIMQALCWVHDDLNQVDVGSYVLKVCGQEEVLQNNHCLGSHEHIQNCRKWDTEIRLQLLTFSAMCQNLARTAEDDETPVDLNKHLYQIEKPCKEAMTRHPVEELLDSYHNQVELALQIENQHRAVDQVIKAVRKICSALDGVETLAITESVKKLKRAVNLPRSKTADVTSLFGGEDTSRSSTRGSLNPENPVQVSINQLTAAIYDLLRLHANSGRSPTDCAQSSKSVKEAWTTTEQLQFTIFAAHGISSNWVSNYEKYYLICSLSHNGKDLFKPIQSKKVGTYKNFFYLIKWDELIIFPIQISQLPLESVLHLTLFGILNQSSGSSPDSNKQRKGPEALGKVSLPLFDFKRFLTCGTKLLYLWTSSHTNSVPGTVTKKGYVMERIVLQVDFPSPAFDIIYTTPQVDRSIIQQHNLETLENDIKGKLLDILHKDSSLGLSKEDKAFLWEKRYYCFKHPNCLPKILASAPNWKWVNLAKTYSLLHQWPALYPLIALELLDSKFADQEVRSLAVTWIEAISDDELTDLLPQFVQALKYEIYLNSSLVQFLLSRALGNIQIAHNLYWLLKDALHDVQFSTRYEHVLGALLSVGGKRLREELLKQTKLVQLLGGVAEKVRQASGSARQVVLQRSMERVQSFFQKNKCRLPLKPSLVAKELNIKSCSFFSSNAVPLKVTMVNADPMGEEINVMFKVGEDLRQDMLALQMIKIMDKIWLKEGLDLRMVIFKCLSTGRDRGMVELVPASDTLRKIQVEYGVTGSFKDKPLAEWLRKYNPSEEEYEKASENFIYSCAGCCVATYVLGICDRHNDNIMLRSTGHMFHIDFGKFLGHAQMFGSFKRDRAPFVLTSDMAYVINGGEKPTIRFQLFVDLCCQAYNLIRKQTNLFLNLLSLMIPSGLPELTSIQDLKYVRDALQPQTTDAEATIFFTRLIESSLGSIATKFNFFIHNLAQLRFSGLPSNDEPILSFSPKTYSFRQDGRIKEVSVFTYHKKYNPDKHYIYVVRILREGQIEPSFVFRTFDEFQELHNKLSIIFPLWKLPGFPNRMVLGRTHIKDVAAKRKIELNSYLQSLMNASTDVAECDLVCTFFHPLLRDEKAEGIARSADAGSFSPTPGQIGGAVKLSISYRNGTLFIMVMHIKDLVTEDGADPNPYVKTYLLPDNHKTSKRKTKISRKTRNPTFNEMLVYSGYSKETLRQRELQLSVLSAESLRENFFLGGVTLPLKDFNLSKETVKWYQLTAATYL
# Mitogen-activated protein kinase kinase kinase kinase 4, sequence (O95819 whole entry, the tested form may be a part): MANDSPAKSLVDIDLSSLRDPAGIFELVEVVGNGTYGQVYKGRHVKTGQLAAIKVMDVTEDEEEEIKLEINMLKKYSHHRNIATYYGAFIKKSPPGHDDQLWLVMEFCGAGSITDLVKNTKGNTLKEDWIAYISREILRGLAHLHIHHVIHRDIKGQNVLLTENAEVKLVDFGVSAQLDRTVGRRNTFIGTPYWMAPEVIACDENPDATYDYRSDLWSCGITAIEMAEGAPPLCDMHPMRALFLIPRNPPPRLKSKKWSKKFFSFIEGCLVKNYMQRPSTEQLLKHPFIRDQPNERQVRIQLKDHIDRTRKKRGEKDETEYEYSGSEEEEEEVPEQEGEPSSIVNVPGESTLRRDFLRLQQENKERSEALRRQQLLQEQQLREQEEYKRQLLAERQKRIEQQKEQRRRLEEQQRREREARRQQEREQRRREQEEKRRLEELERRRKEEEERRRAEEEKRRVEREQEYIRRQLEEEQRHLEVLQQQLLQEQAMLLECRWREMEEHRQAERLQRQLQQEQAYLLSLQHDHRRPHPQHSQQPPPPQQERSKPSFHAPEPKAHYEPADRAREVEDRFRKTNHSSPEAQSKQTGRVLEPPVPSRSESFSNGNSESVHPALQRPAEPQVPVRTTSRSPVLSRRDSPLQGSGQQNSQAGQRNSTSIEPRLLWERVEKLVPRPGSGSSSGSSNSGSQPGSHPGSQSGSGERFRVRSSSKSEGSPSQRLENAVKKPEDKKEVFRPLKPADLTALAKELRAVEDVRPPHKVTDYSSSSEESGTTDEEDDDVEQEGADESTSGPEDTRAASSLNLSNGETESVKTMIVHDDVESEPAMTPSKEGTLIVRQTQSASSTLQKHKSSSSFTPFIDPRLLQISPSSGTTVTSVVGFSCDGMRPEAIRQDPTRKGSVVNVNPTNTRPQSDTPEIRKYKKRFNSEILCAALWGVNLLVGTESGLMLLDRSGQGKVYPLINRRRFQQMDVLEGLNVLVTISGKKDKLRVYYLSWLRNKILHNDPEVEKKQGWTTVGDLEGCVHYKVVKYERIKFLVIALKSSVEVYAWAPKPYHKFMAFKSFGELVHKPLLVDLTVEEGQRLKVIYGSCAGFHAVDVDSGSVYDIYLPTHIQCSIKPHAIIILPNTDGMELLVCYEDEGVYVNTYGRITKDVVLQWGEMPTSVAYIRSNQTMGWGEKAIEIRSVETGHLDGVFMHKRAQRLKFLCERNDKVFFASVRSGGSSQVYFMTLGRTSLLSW
# Cytochrome P450 2C9, sequence (P11712 whole entry): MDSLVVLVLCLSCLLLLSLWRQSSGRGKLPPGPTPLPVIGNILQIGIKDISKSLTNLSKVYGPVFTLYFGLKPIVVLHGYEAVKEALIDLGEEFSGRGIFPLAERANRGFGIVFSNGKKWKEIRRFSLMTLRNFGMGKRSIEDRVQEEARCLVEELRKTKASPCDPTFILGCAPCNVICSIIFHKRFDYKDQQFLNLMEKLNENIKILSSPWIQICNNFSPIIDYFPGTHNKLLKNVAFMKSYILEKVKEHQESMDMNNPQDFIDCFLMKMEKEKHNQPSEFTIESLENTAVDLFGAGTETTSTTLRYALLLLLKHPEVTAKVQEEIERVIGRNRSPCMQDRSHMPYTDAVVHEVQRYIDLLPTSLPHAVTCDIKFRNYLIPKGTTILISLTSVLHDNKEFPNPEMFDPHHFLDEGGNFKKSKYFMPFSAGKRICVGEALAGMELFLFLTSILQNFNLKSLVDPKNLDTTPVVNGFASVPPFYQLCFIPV
# Ephrin type-A receptor 2, sequence (P29317 whole entry, the tested form may be a part): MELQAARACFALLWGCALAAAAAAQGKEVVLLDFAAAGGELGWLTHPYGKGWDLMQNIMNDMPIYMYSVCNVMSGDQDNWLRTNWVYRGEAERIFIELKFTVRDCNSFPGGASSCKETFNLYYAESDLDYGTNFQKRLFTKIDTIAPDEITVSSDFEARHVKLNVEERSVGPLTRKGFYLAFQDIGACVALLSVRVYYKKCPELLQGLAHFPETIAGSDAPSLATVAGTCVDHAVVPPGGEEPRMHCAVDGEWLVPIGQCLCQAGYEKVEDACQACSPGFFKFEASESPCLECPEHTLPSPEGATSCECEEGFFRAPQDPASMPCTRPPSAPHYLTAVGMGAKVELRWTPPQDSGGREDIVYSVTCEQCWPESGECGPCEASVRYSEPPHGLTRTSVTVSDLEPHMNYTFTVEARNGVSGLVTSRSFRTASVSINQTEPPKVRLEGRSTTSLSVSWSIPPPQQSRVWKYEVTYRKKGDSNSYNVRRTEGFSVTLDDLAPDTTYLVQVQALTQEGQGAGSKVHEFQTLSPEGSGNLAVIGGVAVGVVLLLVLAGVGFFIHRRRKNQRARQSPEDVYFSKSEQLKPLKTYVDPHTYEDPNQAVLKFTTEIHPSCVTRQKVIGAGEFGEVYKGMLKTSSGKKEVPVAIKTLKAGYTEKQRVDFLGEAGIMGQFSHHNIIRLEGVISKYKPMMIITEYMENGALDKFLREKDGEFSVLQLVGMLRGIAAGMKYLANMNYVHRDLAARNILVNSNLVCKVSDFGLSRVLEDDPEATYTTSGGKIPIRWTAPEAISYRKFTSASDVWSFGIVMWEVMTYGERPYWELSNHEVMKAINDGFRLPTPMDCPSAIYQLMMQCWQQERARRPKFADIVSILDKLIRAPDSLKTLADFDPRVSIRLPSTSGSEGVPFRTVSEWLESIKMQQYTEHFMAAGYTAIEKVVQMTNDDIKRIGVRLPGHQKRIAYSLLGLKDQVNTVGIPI
# Serine/threonine-protein kinase 26, sequence (Q9P289 whole entry, the tested form may be a part): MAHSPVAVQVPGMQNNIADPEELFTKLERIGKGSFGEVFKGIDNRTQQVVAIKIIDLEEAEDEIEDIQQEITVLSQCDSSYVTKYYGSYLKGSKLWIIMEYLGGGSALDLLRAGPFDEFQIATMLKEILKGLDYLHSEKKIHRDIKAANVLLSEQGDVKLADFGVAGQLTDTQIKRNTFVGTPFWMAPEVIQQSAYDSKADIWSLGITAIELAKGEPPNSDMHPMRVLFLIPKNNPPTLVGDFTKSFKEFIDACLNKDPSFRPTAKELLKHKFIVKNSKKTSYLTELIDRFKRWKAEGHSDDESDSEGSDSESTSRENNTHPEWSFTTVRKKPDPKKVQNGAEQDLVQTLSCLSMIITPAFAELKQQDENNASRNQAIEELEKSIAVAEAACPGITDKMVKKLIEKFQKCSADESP
compound,measurement,setting,value
C[C@@H]1C[C@H]1C(=O)N1CCN(c2cnc(C#N)c(-c3cnn(C)c3)n2)C[C@H]1C,IC50,Cytochrome P450 2C9,> 50 µM
same,IC50,Cytochrome P450 2D6,> 50 µM
same,IC50,[1],> 100 µM
same,IC50,[2],26.3 µM
same,inhibition,[3],10%
same,inhibition,[4],-2%
same,inhibition,[5],0%
same,inhibition,[6],2%
same,inhibition,[7],21%
same,IC50,[8],> 100 µM
same,IC50,Ephrin type-A receptor 2,> 100 µM
same,IC50,[9],> 100 µM
same,IC50,[10],> 100 µM
same,IC50,[11],> 100 µM
same,IC50,[12],> 100 µM
same,IC50,[13],> 100 µM
same,IC50,[14],> 100 µM
same,IC50,[15],> 100 µM
same,IC50,[16],> 100 µM
same,IC50,[17],> 100 µM
same,IC50,[18],> 100 µM
same,IC50,[19],> 100 µM
same,IC50,[20],> 100 µM
same,IC50,SRSF protein kinase 2,> 100 µM
